From US8163756B2 (priority 2004, dated 2012)
Like-named read-outs stand apart in the source and are kept apart here.

Target: B-Raf(V599E) kinase (Homo sapiens, UniProt P15056, V600E)
Test: B-Raf(V599E) kinase assay B1 (construct 1, MEK1 substrate, coupled spectrophotometric)
Format: biochemical
Procedure: The test compounds were incubated with the reaction mixtureat 30° C. for 2 h. […] The reaction rate was calculated using the […] time frame. […] IC50 values were calculated from a series of percent inhibition values determined at a range of inhibitor concentrations using software routines as implemented in the GraphPad Prism software package.

[1] = Method B1, read-out: B-Raf Data

B-Raf(V599E) kinase, sequence (P15056 with tags, fused parts or gaps V600E): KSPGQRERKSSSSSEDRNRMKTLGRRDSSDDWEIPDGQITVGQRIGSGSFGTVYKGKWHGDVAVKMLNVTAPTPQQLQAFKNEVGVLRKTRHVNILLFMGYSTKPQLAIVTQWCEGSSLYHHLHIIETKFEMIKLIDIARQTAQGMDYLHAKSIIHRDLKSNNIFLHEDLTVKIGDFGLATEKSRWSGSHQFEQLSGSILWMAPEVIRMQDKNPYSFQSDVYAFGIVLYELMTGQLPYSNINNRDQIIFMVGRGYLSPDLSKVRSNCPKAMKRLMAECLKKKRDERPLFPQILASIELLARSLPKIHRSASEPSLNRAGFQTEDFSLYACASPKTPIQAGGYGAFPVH

## Cc1cc(NC(=O)Nc2cc(C(C)(C)C)nn2-c2ccc3c(c2)C(=O)NCC3)no1 [Example 314, 1-(3-t-butyl-1-(1-oxo-1,2,3,4-tetrahydroiso-quinolin-7-yl)-1H-pyrazol-5-yl)-3-(5-methylisoxazol-3-yl)urea]
  IC50: 266 nM

## CCOC(=O)c1cc(-n2nc(C(C)(C)C)cc2NC(=O)NC2CCCCC2)cc2ccccc12 [Example 288, ethyl 3-(3-t-butyl-5-(3-cyclohexylureido)-1H-pyrazol-1-yl)-1-naphthoate]
  IC50: 56 nM

## CC(C)(C)c1cc(NC(=O)Nc2ccc3c(c2)OCO3)n(-c2cccc(CO)c2)n1 [Example 221, 1-(benzo[d][1,3]dioxol-5-yl)-3-(3-t-butyl-1-(3-(hydroxymethyl)phenyl)-1H-pyrazol-5-yl)urea]
  IC50: 88 nM

## CC(C)NCCc1cccc(-n2nc(C(C)(C)C)cc2NC(=O)Nc2cccc(Cl)c2Cl)c1 [Example 259, 1-(3-t-butyl-1-(3-(2-(isopropylamino)ethyl)phenyl)-1H-pyrazol-5-yl)-3-(2,3-dichlorophenyl)urea]
  IC50: 8.3 nM

## CC(C)(C)c1cc(NC(=O)Nc2cccc(Br)c2)n(-c2cccc(CO)c2)n1 [Example 223, 1-{3-t-butyl-1-[3-(hydroxymethyl)phenyl]-1H-pyrazol-5-yl}-3-(3-bromophenyl)urea]
  IC50: 54 nM

## CC(C)(C)c1cc(NC(=O)Nc2cccc(F)c2F)n(-c2ccc3c(c2)CCC(=O)N3)n1 [Example 320, 1-(3-t-butyl-1-(2-oxo-1,2,3,4-tetrahydro-quinolin-6-yl)-1H-pyrazol-5-yl)-3-(2,3-difluorophenyl)urea]
  IC50: 4.6 nM

## CC(C)(C)c1cc(NC(=O)Nc2ccc(F)c(F)c2)n(-c2cccc(CC(N)=O)c2)n1 [Example 436, 1-(1-(3-(2-amino-2-oxoethyl)phenyl)-3-t-butyl-1H-pyrazol-5-yl)-3-(3,4-difluorophenyl)urea]
  IC50: 18 nM

## CC(C)(C)c1cc(NC(=O)Nc2cccc(F)c2F)n(-c2cccc(CC(N)=O)c2)n1 [Example 394, 1-{1-[3-(2-amino-2-oxoethyl)phenyl]-3-t-butyl-1H-pyrazol-5-yl}-3-(2,3-difluorophenyl)urea]
[1]
  IC50: 8.8 nM

## CC(C)(C)c1cc(NC(=O)Nc2ccccc2F)n(-c2cccc(CO)c2)n1 [Example 219, 1-{3-t-butyl-1-[3-(hydroxymethyl)phenyl]-1H-pyrazol-5-yl}-3-(2-fluorophenyl)urea]
  IC50: 55 nM

## CC(C)(C)c1cc(NC(=O)NC2CCCCC2)n(-c2ccc3c(c2)C(=O)NCC3)n1 [Example 310, 1-(3-t-butyl-1-(1-oxo-1,2,3,4-tetrahydroiso-quinolin-7-yl)-1H-pyrazol-5-yl)-3-cyclohexylurea]
  IC50: 98 nM

## CC(C)(C)c1cc(NC(=O)Nc2cc(F)cc(F)c2)n(-c2ccc3c(c2)CCC(=O)N3)n1 [Example 326, 1-(3-t-butyl-1-(2-oxo-1,2,3,4-tetrahydro-quinolin-6-yl)-1H-pyrazol-5-yl)-3-(3,5-difluorophenyl)urea]
  IC50: 17 nM

## CC(C)(C)c1cc(NC(=O)Nc2cccc(F)c2)n(-c2ccc3c(c2)CCN3)n1 [Example 306, 1-(3-t-butyl-1-(indolin-5-yl)-1H-pyrazol-5-yl)-3-(3-fluorophenyl)urea]
  IC50: 36 nM

## CC(C)(C)c1cc(NC(=O)Nc2ccc(F)cc2)n(-c2cccc(Cn3c(=O)[nH]n(-c4ccccc4)c3=O)c2)n1 [Example 272, 1-(3-t-butyl-1-{3-[(3,5-dioxo-1-phenyl-1,2,4-triazolidin-4-yl)methyl]phenyl}-1H-pyrazol-5-yl)-3-(4-fluorophenyl)urea]
  IC50: 61 nM

## CC(C)(C)c1cc(NC(=O)Nc2ccc(F)cc2)n(-c2cc(CO)c3ccccc3c2)n1 [Example 293]
  IC50: 7 nM

## CC(C)(C)c1cc(NC(=O)Nc2ccccc2Cl)n(-c2ccc3c(c2)C(=O)NCC3)n1 [Example 313, 1-(3-t-butyl-1-(1-oxo-1,2,3,4-tetrahydroiso-quinolin-7-yl)-1H-pyrazol-5-yl)-3-(2-chlorophenyl)urea]
  IC50: 46 nM

## CC(C)(C)c1cc(NC(=O)Nc2cccc(Cl)c2Cl)n(-c2cccc(CC(N)=O)c2)n1 [Example 25, 1-{1-[3-(2-amino-2-oxoethyl)phenyl]-3-t-butyl-1H-pyrazol-5-yl}-3-(2,3-dichlorophenyl)urea]
  IC50: 3.5 nM

## CC(C)(C)c1cc(NC(=O)Nc2cccc(Cl)c2)n(-c2cccc(CO)c2)n1 [Example 222]
  IC50: 47 nM

## CC(C)(C)c1cc(NC(=O)Nc2cccc(-c3cnccn3)c2)n(-c2cccc(CC(N)=O)c2)n1 [Example 437, 1-(1-(3-(2-amino-2-oxoethyl)phenyl)-3-t-butyl-1H-pyrazol-5-yl)-3-(3-(pyrazin-2-yl)phenyl)urea]
[1]
  IC50: 279 nM

## CC(C)(C)c1cc(NC(=O)Nc2ccc(F)cc2F)n(-c2cccc(CC(=O)O)c2)n1 [Example 369, 2-(3-(3-t-butyl-5-(3-(2,4-difluorophenyl)-ureido)-1H-pyrazol-1-yl)phenyl)acetic acid]
  IC50: 15 nM

## CC(C)(C)c1cc(NC(=O)Nc2ccc(Cl)cc2)n(-c2ccc3c(c2)C(=O)NCC3)n1 [Example 309, 1-[3-t-butyl-1-(1-oxo-1,2,3,4-tetrahydroiso-quinolin-7-yl)-1H-pyrazol-5-yl]-3-(4-chlorophenyl)urea]
  IC50: 249 nM

## CC(C)(C)c1cc(NC(=O)Nc2ccccc2)n(-c2cc(CN)c3ccccc3c2)n1 [Example 295, 1-[1-(4-(aminomethyl)naphthalen-2-yl)-3-t-butyl-1H-pyrazol-5-yl]-3-phenylurea]
  IC50: 52 nM

## CC(C)(C)c1cc(NC(=O)Nc2ccccc2F)n(-c2cc(CO)c3ccccc3c2)n1 [Example 291, 1-(3-t-butyl-1-(4-(hydroxymethyl)naphthalen-2-yl)-1H-pyrazol-5-yl)-3-(2-fluorophenyl)urea]
  IC50: 5.3 nM

## CC(=O)OCc1cccc(-n2nc(C(C)(C)C)cc2NC(=O)Nc2cccc(Cl)c2Cl)c1 [Example 245, 3-(3-t-butyl-5-(3-(2,3-dichlorophenyl)ureido)-1H-pyrazol-1-yl)benzyl acetate]
  IC50: 5.3 nM

## CC(C)(C)c1cc(NC(=O)Nc2cc(F)c(F)c(F)c2)n(-c2ccc3c(c2)CCC(=O)N3)n1 [Example 324, 1-(3-t-butyl-1-(2-oxo-1,2,3,4-tetrahydro-quinolin-6-yl)-1H-pyrazol-5-yl)-3-(3,4,5-trifluorophenyl)urea]
  IC50: 17 nM

## CC(C)(C)c1cc(NC(=O)Nc2ccc(F)c(F)c2F)n(-c2cccc(CC(N)=O)c2)n1 [Example 435, 1-(1-(3-(2-amino-2-oxoethyl)phenyl)-3-t-butyl-1H-pyrazol 5-yl)-3-(2,3,4-trifluorophenyl)urea]
[1]
  IC50: 7.3 nM

## C[C@H](NC(=O)Nc1cc(C(C)(C)C)nn1-c1cccc(CC(N)=O)c1)c1ccccc1 [Example 392, 1-{1-[3-(2-amino-2-oxoethyl)phenyl]-3-t-butyl-1H-pyrazol-5-yl}-3-((S)-1-phenylethyl)urea]
  IC50: 221 nM

## CC(C)(C)c1cc(NC(=O)Nc2cc(F)c(F)cc2F)n(-c2cccc(CC(N)=O)c2)n1 [Example 434, 1-(1-(3-(2-amino-2-oxoethyl)phenyl)-3-t-butyl-1H-pyrazol-5-yl)-3-(2,4,5-trifluorophenyl)urea]
[1]
  IC50: 6.7 nM

## COC(=O)Cc1cc(-n2nc(C(C)(C)C)cc2NC(=O)Nc2ccccc2)cc2ccccc12 [Example 299, {3-[3-t-butyl-5-(3-phenylureido)pyrazol-1-yl]naphthalen-1-yl}acetic acid methyl ester]
  IC50: 20 nM
